The record followed here is patent US20220160688A1, “INHIBITION OF NAMPT AND/OR SARM1 FOR THE TREATMENT OF AXONAL DEGRADATION” (THE JOHNS HOPKINS UNIVERSITY, priority 2019, published 2022).

Assay [1] relates to Mouse dorsal root ganglion (DRG) cells. The assay is described as follows: Microfluidic based axon degeneration assay (axotomy, degeneration index). It counts as cell-based. Conditions: for efficacy against Wallerian degeneration compared with FK866: tested at different concentrations; for Optimized Concentration used (from dose response curves): tested 2 hours following axotomy. On the procedure: A poly-dimethylsiloxane (PDMS)-based microfluidic device described by Hosmane and colleagues was used for these experiments (see, FIG. 16) (see, Hosmane, et al., Lab Chip 2010, 10, 741-747). This device provisions a perikaryal compartment where nerve cells are first placed and a juxtaposed array of 200 microchannels towards which axons grow and through which they traverse to reach a third axonal compartment. Mouse dorsal root ganglion (DRG) cells were prepared from E12-13 embryos and plated to the perikaryal compartment. After 6-7 days of culture at 37° C. and 5% CO2, axons were cut using a razor blade with vehicle or reagents. Images of the axonal compartment were taken at various time intervals at 20× magnification. Images were then analyzed for degeneration index (DI) which indicates percentage of fragmented axons over total axonal area, and drug-treated axons were compared to vehicle treated or uninjured axons. Live time-lapse images were taken as needed.

Assay [2] has as its system IA-injured Thy1-eYFP-H mice. The assay is described as follows: CLARITY-based counts of axonal lesions in the CST after impact acceleration (IA) injury. The note with it: FK866 10 mg/kg i.p. immediately after injury then every 6 h, vs vehicle. It is filed as in vivo, mouse. The source says:
IA injury was produced under gas anesthesia with 2% isoflurane. Under aseptic conditions and with the subject in a small-animal stereotactic frame, a 5-mm-diameter steel disc was glued on the exposed cranium between bregma and lambda to prevent skull fracture. The mouse was then placed prone on a foam bed under a hollow Plexiglas tube and secured with tape as described previously (see, Xu L, (2016) Exp Neurol 275:436-449). Injury was produced by dropping a brass weight from a height of 1 m through the Plexiglas tube onto the disk. In all cases except the impact dose-response study outlined below, that weight was 60 g. The foam bed was pulled immediately at the rebound of the weight off the metal disc, such as to prevent a second impact. The metal disc was then removed, scalp incision was closed with surgical staples, and the animal returned to cage for full recovery. Subjects with skull fractures confirmed with a surgical microscope were excluded from the study. […]
For 3D visualization and quantitative analysis of axonal injury of cleared brainstems, we used the software suite Imaris (Bitplane). […] For the detection and quantification of axonal swellings based on YFP and APP, the spot detection function for the whole CST volume from the pons to the pyramidal decussation or cervical spinal cord was used. […]

Assay [3] deals with mice injured with impact-acceleration. Briefly: Pellet-reaching task after impact-acceleration traumatic brain injury. Conditions: drug administered continuously for 14 days post injury (osmotic pump); vs vehicle-treated mice. It is filed as in vivo, mouse. On the procedure: Experiments were conducted to characterize the effects of SARM1 deletion or pharmacological SARM1 blockade on corticospinal-dependent motor deficits after traumatic brain injury (impact-acceleration). This was tested on the pellet-reaching task, i.e. the golden-standard to assess skilled function of the forelimbs in rodents relevant to a similar task used to assess fine motor function in humans. Specifically, experiments trained mice for 2 weeks before TBI in order to reach peak performance in the task. At that point the trained mice were injured with impact-acceleration. Experiments next measured their performance every day for two weeks post injury and comparisons were made between groups of mice administered FK866 and vehicle treated mice (control group).
Mice were placed under food restriction or 2 days to lose approximately 10% of their body weight. Following this, the shaping phase of the experiment was initiated: two mice were placed in the training chamber comprised of a clear Plexiglas chamber with ample food for 20 minutes for the first day, whereas one mouse was placed in the same chamber on day 2. The training chamber has a single slit through which the mouse can retrieve a pellet of food placed on the outside right in front of the slit. […] Retrieval attempts were recorded and characterized as successful only if a mouse retrieved the pellet and put it in its mouth. […]

Entries after “also recorded” stand apart in the source; their conditions may differ.

As for `O=C(CCCCCCCn1cc(-c2cccnc2)nn1)Nc1ccccc1-c1ccccc1` [GPP78], the “efficacy against Wallerian degeneration compared with FK866” value (shortened to “efficacy … compared with FK866”) in assay [1] (axotomized DRG axons) is “comparably strong efficacy”. Moreover, the “Optimized Concentration used (from dose response curves)” value (“Optimized Concentration used” below) in assay [1] came to 1000 nM.
In the case of `NC(=O)c1ccc[n+]([C@@H]2O[C@H](COP(=O)([O-])O)[C@@H](O)[C@H]2O)c1` [NMN, nicotinamide mononucleotide], in assay [1] (FK866 at time of injury, NMN added 0, 2, 4 hours post axotomy), the “effect of added NMN on the protection by NAMPT inhibition (FK866)” value is reported as “reversed”.
As to `CC(C)(C)c1ccc(S(=O)(=O)NCc2ccc(C(=O)Nc3cccnc3)cc2)cc1` [STF31], the “efficacy … compared with FK866” value in assay [1] (axotomized DRG axons) is recorded as “comparably strong efficacy”. The “Optimized Concentration used” value in assay [1] is 2000 nM.
For the compound `NC(=O)c1ccc[n+]([C@@H]2O[C@H](CO)[C@@H](O)[C@H]2O)c1` [NAR, nicotinamide riboside], the “effect of added NAR on the protective effect of FK866” value in assay [1] (FK866 and/or NAR at the time of injury) was “further augmented the protective effect of FK866”.
In the case of `Cc1ccc(S(=O)(=O)Cc2nc(-c3ccc(C(=O)NCc4cccnc4)cc3)oc2C)cc1` [STF118804], in assay [1] (axotomized DRG axons), the “efficacy … compared with FK866” value is reported as “comparably strong efficacy”. In addition, the “Optimized Concentration used” value in assay [1] came out at 250 nM.
On to `N#CN=C(NCCCCCCOc1ccc(Cl)cc1)Nc1ccncc1` [CHS-828], for which, in assay [1] (axotomized DRG axons), the “efficacy … compared with FK866” value is “comparably strong efficacy”. Besides, the “Optimized Concentration used” value in assay [1] stood at 250 nM.
In the case of `O=C(/C=C/c1cccnc1)NCCCCC1CCN(C(=O)c2ccccc2)CC1` [FK866], the “number (density) of axonal lesions per anatomical segment (CST×RST, pyramidal decussation, cervical cord)” value in assay [2] (24 h after injury) is listed as “significantly lower number of axonal lesions”. Moreover, the “total number of axonal lesions in the CST from the pons to cervical spinal cord” value in assay [2] (counted 24 h after injury, 10 mg/kg) was “significantly lower number of axonal lesions; also recorded: smaller number of axonal lesions”. Besides, the “skilled motor function (pellet-reaching performance)” value in assay [3] is “significant preservation of skilled motor function; also recorded: maintain their pellet-reaching skill”. In assay [1] (FK866 given at 0, 2, 4, 6 hours following injury), the “optimal therapeutic window of treatment onset” value was “within two to six hours of injury”. For the same compound, in assay [1] (axotomized DRG axons, treatment after the onset of visible fragmentation), the “delay of further fragmentation” value is given as “still effective in delaying further fragmentation”. Also, the “protection against Wallerian degeneration (degeneration index)” value in assay [1] (axotomized DRG axons, treatment at 2 hours post-injury) was “Maximum protection against WD”. The “Optimized Concentration used” value in assay [1] is 100 nM.
